Structures are written as SMILES.

The subject of experiment [1] is TNF-α release in LPS-induced Balb/c female mice. The experiment in a line: Inhibition of TNF-α release in LPS-induced Balb/c female mice. The class given is in vivo, mouse. On the set-up: concentration or dose not given beside the values. Particulars: oral gavage 5 h before LPS induction, serum 1.5 h after stimulation. How it is done:
In the normal control groups, the animals received an intraperitoneal injection of normal saline (10 mL/kg) and in the model groups, the animals received LPS stimulation (Sigma CAT #L2630, i.p., 10 mL/kg, 0.2 mg/kg). During the assay, to the test compounds, DMSO, Solutol and 10 mM PBS were sequentially added to prepare a solution or suspension of required concentration for administration. For the vehicle, DMSO, Solutol and 10 mM PBS were mixed in a volume ratio of 5:15:80. In each of the groups, the animals were administered through oral gavage (10 mL/kg) 5 h before LPS (or saline) stimulation at predetermined doses, and euthanized with CO2 at 1.5 h after the stimulation for cardiac blood collection. The whole blood was not anticoagulated, incubated in wet ice for 1.5 h, and centrifuged at 2000×g at 4° C. for 10 min to separate the serum. The serum was frozen at −80° C. for TNF-α assay. Quantification of the TNF-α was done with TNF-α ELISA kit according to the manufacturer's instruction.

For experiment [2], the target named is T1, human IRAK4 (Homo sapiens, UniProt Q9NWZ3).
T1 construct: purchased Cama (so in the source)
T1 sequence (Q9NWZ3 1-460): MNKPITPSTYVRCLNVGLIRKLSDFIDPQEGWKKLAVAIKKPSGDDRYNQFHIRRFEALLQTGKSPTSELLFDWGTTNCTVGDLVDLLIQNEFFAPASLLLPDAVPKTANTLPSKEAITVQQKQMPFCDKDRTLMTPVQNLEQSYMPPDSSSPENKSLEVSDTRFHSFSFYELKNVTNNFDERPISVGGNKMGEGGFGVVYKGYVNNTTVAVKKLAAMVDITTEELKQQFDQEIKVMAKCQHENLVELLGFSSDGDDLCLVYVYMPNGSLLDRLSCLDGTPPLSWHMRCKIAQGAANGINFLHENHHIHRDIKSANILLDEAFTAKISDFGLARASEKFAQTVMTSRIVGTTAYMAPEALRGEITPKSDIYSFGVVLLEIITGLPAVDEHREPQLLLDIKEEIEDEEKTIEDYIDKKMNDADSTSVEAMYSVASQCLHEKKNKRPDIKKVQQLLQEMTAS
The experiment in a line: IRAK4 MSA (Mobility-Shift Assay) at Km ATP. The class given is biochemical. The note with it: GST-IRAK4 1 nM, ATP 37 μM (Km); read-out: IC50 for inhibiting human IRAK4 kinase. How it is done: A recombinant fusion protein of N-terminal GST (glutathione-S-transferase) and human IRAK4 was used as enzyme (GST-IRAK4, kinase IRAK4 (Cama)) at a final concentration of 1 nM; ATP (Sigma) was at a final concentration of 37 μM; the substrates used for the kinase reaction were a 5-FAM (5-carboxyfluorescein)-labeled polypeptide (5-FAM-[…]-COOH) and a substrate peptide FAM-P8 (GL Biochem) at final concentrations of […].
In this assay, 500 μM solutions of the compounds were prepared in 100% DMSO, and serially 4-fold diluted to the 10th concentration gradient with 100% DMSO, followed by a 10-fold dilution in the compound buffer (50 mM HEPES. pH 7.5, 0.00015% Brij-35) to give intermediate dilutions of the compounds at a final concentration of 10 μM-0.04 nM containing 10% DMSO respectively, 5 μL of the dilutions were transferred into a black 384-well plate respectively.
IRAK4 was diluted to 2.5 nM in the kinase buffer (50 mM HEPES, pH 7.5, 0.00015% Brij-35, 2 mM DTT). 10 μL of the IRAK4 dilution was transferred to the 384-well plate and co-incubated with the compound for 10-15 min.
The substrate and ATP were diluted to 12.5 μM and 92.5 μM with reaction buffer (50 mM HEPES, pH 7.5, 0.00015% Brij-35, 10 mM MgCl2), respectively. 10 μL of the dilutions were transferred to a 384-well plate and incubated at 28° C. for 1 h respectively. The reaction was terminated by adding 25 μL of 50 mM EDTA to the 384-well plate.
The inhibition rates of IRAK4 by the compounds were calculated by measuring the rate of phosphorylated substrate using a Caliper EZ Reader (PerkinElmer) and the IC50 values were calculated by XL-fit software.

Experiment [3] deals with IL-6 release in LPS-induced Balb/c female mice. As to the kind of experiment: Inhibition of IL-6 release in LPS-induced Balb/c female mice. The class given is in vivo, mouse. The arrangement: concentration or dose not given beside the values. Particulars: administered 5 h before LPS induction, serum. How it is done: Objective of the test: To determine the inhibitory effect of the compounds by measuring the plasma IL-6 concentration in a Balb/c mouse model with LPS-induced inflammation.
2.1 Prepared mouse serum samples (sample batch no. 20181218)
4.1 Reagent kit was equilibrated at room temperature (25-28° C.) for 20 min. After each detection, the remaining reagents were stored at 4° C.
4.3 Preparing reference standard: 1 vial of reference standard substance was added with labeled volume of reference standard diluent. The mixtures were incubated for 15 min at room temperature. Then the mixtures were gently mixed to completely dissolve the substance to prepare a reference standard stock at a final concentration of 1000 μg/mL.
4.4 Dilution of samples: The sample in each group was diluted by […], i.e., a 2-fold dilution with sample assay buffer followed by another two-fold dilution with standard diluent.
4.5 The diluted samples or standards of different concentrations were added into corresponding wells at 100 μL/well respectively, and a background correcting well (or a blank well) was set by adding only TMB buffer and terminating solution. The wells were sealed with a transparent film and incubated at room temperature for 120 min.
4.6 The plate was subjected to 5 washes, each with 300 μL of washing buffer for 15-30 sec. The plate was dried on thick absorbent paper after the last wash.
4.7 Biotinylated antibody was added at 100 μL/well (Note: the biotinylated antibody was prepared in advance and could be used directly without further dilution). The wells were sealed with a transparent film and incubated at room temperature for 60 min.
4.8 The plate was subjected to 5 washes, each with 300 μL of washing buffer for 15-30 sec. The plate was dried on thick absorbent paper after the last wash.
4.9 Horseradish peroxidase-labeled streptavidin was added at 100 μL/well. The wells were sealed with a white film and incubated away from light at room temperature for 20 min.
4.10 The plate was subjected to 5 washes, each with 300 μL of washing buffer for 15-30 sec. The plate was dried on thick absorbent paper after the last wash.
4.11 The chromogenic reagent TMB was added 100 μL/well. The wells were sealed with a white film and incubated away from light at room temperature for 20 min.
4.12 The terminating solution was added at 50 μL/well and A450 value was measured right after mixing.

Experiment [4] has as its target T2, human IRAK1 (Homo sapiens, UniProt P51617).
T2 construct: purchased Cama (so in the source)
As to the kind of experiment: IRAK1 MSA (Mobility-Shift Assay) at Km ATP. The class given is biochemical. How it is done: 5 μL of the intermediate dilutions were transferred into a black 384-well plate.
IRAK1 was diluted to 7.5 nM in the kinase buffer (50 mM HEPES, pH 7.5, 0.00015% Brij-35, 2 mM DTT). 10 μL of the IRAK1 dilution was transferred to the 384-well plate and co-incubated with the compound for 10-15 min.
The substrate and ATP were diluted to 12.5 μM and 242.5 μM with reaction buffer (50 mM HEPES, pH 7.5, 0.00015% Brij-35, 10 mM MgCl2), respectively. 10 μL of the dilutions was transferred to a 384-well plate and incubated at 28° C. for 1 h. The reaction was terminated by adding 25 μL of 50 mM EDTA to the 384-well plate.
The inhibition rates of IRAK1 by the compounds were calculated by measuring the rate of phosphorylated substrate using a Caliper EZ Reader (PerkinElmer) and the IC50 values were calculated by XL-fit software.

T2 sequence (P51617 whole entry): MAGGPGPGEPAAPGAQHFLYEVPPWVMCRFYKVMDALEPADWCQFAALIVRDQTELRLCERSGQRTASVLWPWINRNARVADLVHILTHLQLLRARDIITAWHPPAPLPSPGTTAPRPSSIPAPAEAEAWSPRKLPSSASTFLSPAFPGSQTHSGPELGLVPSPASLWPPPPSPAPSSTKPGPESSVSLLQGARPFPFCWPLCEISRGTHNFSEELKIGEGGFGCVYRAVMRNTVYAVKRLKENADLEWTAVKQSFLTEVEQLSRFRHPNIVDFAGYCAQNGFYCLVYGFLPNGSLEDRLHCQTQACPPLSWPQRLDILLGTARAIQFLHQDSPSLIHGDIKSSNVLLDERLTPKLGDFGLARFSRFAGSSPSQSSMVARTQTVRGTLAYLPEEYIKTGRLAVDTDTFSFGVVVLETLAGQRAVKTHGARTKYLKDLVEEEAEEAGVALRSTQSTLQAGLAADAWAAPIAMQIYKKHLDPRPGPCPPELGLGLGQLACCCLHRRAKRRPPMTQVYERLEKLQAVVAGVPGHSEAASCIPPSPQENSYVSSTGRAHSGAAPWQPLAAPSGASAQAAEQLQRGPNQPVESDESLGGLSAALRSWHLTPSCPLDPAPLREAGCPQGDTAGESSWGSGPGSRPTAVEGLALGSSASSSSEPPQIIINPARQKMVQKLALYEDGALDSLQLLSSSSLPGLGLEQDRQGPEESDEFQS

What is called IC50 is the concentration that gives 50% inhibition. Turning to `COc1cc2nn([C@H]3C[C@H](C(C)(C)O)C3)cc2cc1NC(=O)c1cnn2cccnc12` [MY-004-075], the “Inhibition rate of TNF-α” value in experiment [1] was 90.15%. Besides, the IC50 in experiment [2] was found to be 3.6 nM. In addition, the “Inhibition rate of IL-6” value in experiment [3] is listed as 96.88%.

For `CC(C)(O)c1cc2nn([C@H]3C[C@H](C(C)(C)O)C3)cc2cc1NC(=O)c1cccc(C(F)(F)F)n1` [MY-004-109], the IC50 was 4320 nM in experiment [4] and 5.8 nM in experiment [2]. In experiment [4] (selectivity for IRAK4), the “IC50 (IRAK1)/IC50 (IRAK4)” value is listed as 745.

Values taken from patent US20220204473A1, “COMPOUND AS IRAK INHIBITOR” (SHANGHAI MEIYUE BIOTECH DEVELOPMENT CO., LTD., priority 2018, published 2022).
